Source: US20260356804A1, “SODIUM CHANNEL BLOCKING COMPOUNDS, DERIVATIVES THEREOF, AND METHODS OF THEIR USE” (LATIGO BIOTHERAPEUTICS, INC., priority 2022, published 2026)

What follows are compounds tested against T1, human Nav1.8/β1 (Homo sapiens, UniProt Q9Y5Y9) (assay: Compound Profiling Human NaV1.8/β1 Cell Line—Sophion QPatch II Assay (automated patch clamp, stably transfected HEK293 cells)). Details: not given.
T1 construct: host or cells: HEK293
Assay type: cell-based
Protocol: Compounds were tested on recombinant human Nav1.8/β1 stably transfected HEK293 (Eurofins, CYL3025, St. Charles, MO) cells using the QPatch II system (Sophion Bioscience A/S, Ballerup—Denmark), an automated patch clamp device. Cells were cultured at 37° C./5% CO2 in DMEM/F-12 supplemented with 10% fetal bovine serum, 1× Non-Essential Amino Acids, and selection antibiotics (0.625 μg/mL Puromycin, 400 μg/mL Geneticin, and 100 μg/mL Hygromycin). One or two days prior to recording, cells were moved to a lower temperature 30° C./5% CO2 incubator to increase surface expression of the channels. On the day of the recordings, cells in culture dishes were washed twice with Ca^2+—Mg^2+ free DPBS and treated with Detachin (Genlantis, San Diego) for 3 minutes and then resuspended in Serum Free Medium (EX-CELL® ACF CHO Medium for Cell Culture (Sigma-Aldrich) supplemented with 0.04 mg/mL soybean trypsin Inhibitor and 25 mM HEPES (all components supplied by Sigma-Aldrich, St. Louis, MO) and allowed to recover for a minimum of 20 minutes in the onboard QStirrer. All experiments were performed at ambient temperature. Intracellular solution contained (mM): CsCl, 50; CsF, 90; MgCl2, 2; EGTA, 5; HEPES, 10; pH adjusted to 7.2 with CsOH. Extracellular solution contained (mM): NaCl, 137; KCl, 4; CaCl2), 3.8; MgCl2, 1; HEPES, 10; Glucose, 10; pH adjusted to 7.4 with NaOH. [LEFT OUT].
Compounds were tested in an interleaved manner across two cohorts of wells to develop an aggregate 8-point concentration response curve. Final concentrations include 0.1% DMSO and 0.03% pluronic Acid. In general, the concentration range spans a range from 0.01-300 nM. Compounds were diluted 1:10 with extracellular solution within their respective cohort. DMSO (0.1% by volume) served as a vehicle control to ascertain assay performance.
(§1) Whole cell patch clamp recordings were conducted according to Sophion standard procedure for QPatch II®. Cells were held at a holding potential of −120 mV. A depolarizing step to 10 mV for 30 ms was applied to elicit inward Na^+ currents. Inter-sweep interval was 15 sec. Following establishment of the whole-cell configuration in extracellular solution, cells were washed twice in extracellular solution containing 0.1% DMSO and 0.03% pluronic acid to stabilize the baseline current. Compounds were then applied by the QPatch II system into each well in an ascending manner within cohort and the current was recorded for five minutes for each concentration. Percent of current remaining was determined by taking the average of the last 5 sweeps within each concentration and normalizing to the latest pre-compound saline period. The potency (IC50) values of the compounds were only assessed against resting state block. Wells whose initial sodium current magnitude were below 2 nA or whole cell resistance fell below 100 MΩ were excluded from analysis.
as §1, with “MO” for “MΩ”, “analysis. […]” for “analysis.”

T1 sequence (Q9Y5Y9 whole entry): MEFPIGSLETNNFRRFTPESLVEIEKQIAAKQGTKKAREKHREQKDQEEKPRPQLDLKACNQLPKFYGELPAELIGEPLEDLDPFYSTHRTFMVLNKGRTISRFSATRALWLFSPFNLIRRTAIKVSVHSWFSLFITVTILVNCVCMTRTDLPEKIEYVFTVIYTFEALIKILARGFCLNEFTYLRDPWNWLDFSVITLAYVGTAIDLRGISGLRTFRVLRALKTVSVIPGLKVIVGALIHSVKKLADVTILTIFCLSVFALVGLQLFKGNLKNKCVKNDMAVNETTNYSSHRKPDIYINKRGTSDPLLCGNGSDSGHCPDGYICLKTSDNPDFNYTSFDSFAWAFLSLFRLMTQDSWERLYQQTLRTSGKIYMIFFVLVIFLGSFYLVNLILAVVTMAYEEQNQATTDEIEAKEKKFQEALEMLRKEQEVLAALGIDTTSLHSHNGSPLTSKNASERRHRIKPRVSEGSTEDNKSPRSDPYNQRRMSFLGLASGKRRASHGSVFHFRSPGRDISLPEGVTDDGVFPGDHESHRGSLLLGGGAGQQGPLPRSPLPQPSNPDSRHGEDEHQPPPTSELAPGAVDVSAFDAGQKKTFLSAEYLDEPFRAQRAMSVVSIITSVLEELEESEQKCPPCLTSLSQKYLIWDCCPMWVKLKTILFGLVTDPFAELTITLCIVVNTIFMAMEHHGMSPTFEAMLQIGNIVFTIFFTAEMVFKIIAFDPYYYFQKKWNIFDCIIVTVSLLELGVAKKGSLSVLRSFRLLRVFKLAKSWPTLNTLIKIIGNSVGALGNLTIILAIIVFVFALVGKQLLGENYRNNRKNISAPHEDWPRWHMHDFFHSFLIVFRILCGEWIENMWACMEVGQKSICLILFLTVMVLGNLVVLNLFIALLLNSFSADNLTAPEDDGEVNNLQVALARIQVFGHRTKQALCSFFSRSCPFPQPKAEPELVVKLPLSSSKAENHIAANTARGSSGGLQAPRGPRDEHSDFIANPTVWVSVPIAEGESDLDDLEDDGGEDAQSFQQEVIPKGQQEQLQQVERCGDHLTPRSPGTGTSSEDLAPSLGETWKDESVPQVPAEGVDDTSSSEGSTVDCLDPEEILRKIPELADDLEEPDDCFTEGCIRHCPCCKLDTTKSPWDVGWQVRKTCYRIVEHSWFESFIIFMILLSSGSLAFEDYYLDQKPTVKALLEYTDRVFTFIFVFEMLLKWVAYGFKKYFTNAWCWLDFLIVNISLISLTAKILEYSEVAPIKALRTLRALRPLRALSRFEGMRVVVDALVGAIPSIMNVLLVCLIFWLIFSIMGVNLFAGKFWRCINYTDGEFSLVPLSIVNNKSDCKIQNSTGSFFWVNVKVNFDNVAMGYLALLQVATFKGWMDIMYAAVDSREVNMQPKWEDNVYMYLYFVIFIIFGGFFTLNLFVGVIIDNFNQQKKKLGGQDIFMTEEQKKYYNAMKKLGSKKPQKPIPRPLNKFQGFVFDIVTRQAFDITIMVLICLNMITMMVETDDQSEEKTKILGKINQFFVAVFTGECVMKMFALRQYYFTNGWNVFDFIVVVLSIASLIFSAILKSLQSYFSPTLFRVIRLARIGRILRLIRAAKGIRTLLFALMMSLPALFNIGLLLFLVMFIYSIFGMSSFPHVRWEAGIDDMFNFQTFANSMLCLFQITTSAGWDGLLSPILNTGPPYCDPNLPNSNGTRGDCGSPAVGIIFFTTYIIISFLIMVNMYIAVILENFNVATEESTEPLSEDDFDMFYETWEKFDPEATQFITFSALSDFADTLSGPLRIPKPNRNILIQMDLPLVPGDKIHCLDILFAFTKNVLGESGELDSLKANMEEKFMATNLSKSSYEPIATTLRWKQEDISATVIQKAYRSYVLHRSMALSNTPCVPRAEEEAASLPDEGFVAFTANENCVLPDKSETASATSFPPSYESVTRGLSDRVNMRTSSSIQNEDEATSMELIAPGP
T1 sequence (Q07699 19-218 partner): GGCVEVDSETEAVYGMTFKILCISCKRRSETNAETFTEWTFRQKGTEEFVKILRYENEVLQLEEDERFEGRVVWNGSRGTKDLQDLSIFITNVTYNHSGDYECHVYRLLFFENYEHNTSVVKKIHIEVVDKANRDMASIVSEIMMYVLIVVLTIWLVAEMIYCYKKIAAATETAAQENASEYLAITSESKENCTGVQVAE

| Structure (SMILES) | IC50 |
| --- | --- |
| COc1cc(C#N)ccc1Oc1cc(C(F)(F)F)c(Cl)cc1C(=O)Nc1cccc([S@@](C)(=N)=O)c1 [Example 25A] | > 200 nM |
| Cc1nc(F)ccc1Oc1ncc(C(F)(F)F)c(C)c1C(=O)N(C)c1cccc([S@@](C)(=N)=O)c1 [Example 47C, (S)-2-((6-fluoro-2-methylpyridin-3-yl)oxy)-N,4-dimethyl-N-(3-(S-methylsulfonimidoyl)phenyl)-5-(trifluoromethyl)nicotinamide] | > 200 nM |
| Cc1nc(F)ccc1Oc1ncc(C(F)(F)F)c(C)c1C(=O)Nc1cccc([S@@](=N)(=O)CCN(C)C)c1 [Example 75C] | 5 to 50 nM |
| Cc1cc(F)ccc1Oc1ncc(C(F)(F)F)c(C)c1C(=O)Nc1cccc(S(=N)(=O)CCCO)c1 (centres unmarked) [Example 54C] | 50 to 100 nM |
| Cc1nc(F)ccc1Oc1cc(C(F)(F)F)ccc1C(=O)Nc1cccc([S@@](C)(=N)=O)c1 [Example 31A] | 100 to 200 nM |
| COc1cc(C#N)ccc1Oc1ncc(C(F)(F)F)c(C)c1C(=O)Nc1cccc([S@@](=N)(=O)CCCO)c1 [Example 58C] | 5 to 50 nM |
| CNC(C)(C)CS(=N)(=O)c1cccc(NC(=O)c2c(Oc3ccc(F)nc3C)ncc(C(F)(F)F)c2C)c1 (centres unmarked) [Example 51C] | 5 to 50 nM |
| COc1cc(C#N)ccc1Oc1cc(C(F)(F)F)c(Cl)cc1C(=O)Nc1cccc([S@](C)(=N)=O)c1 [Example 27A] | > 200 nM |
| Cc1nc(F)ccc1Oc1ncc(C(F)(F)F)c(C)c1C(=O)Nc1cccc([S@@]2(=O)=NCCC2)c1 [Example 80C] | 100 to 200 nM |
| COc1cc(C#N)ccc1Oc1ncc(C(F)(F)F)c(C)c1C(=O)Nc1cccc(S(=N)(=O)CCCN(C)C)c1 (centres unmarked) [Example 59C] | 5 to 50 nM |
| Cc1nc(F)ccc1Oc1ncc(C(F)(F)F)c(C)c1C(=O)N[C@H]1C[C@H](C(N)=O)C1 [Example 84C] | > 200 nM |
| CNCCCS(=N)(=O)c1cccc(NC(=O)c2c(Oc3ccc(C#N)cc3OC)ncc(C(F)(F)F)c2C)c1 (centres unmarked) [Example 60C] | < 5 nM |
| CNCC[S@](=N)(=O)c1cccc(NC(=O)c2c(Oc3ccc(F)nc3C)ncc(C(F)(F)F)c2C)c1 [Example 65C] | 5 to 50 nM |
| Cc1cc(F)ccc1Oc1ncc(C(F)(F)F)c(C)c1C(=O)Nc1cccc(S(=N)(=O)CCCN(C)C)c1 (centres unmarked) [Example 55C] | 5 to 50 nM |
| Cc1nc(F)ccc1Oc1cc(C(F)(F)F)ccc1C(=O)Nc1ccc(F)c([S@](C)(=N)=O)c1 [Example 30A] | 100 to 200 nM |
| Cc1nc(F)ccc1Oc1ncc(C(F)(F)F)c(C)c1C(=O)Nc1cc(S(C)(=N)=O)ccn1 (centres unmarked) [Example 63C] | > 200 nM |
| Cc1nc(F)ccc1Oc1ncc(C(F)(F)F)c(C)c1C(=O)Nc1cccc([S@]2(=O)=NCCC2)c1 [Example 79C] | 5 to 50 nM |

Other lines, results leading:

| IC50 | Structure (SMILES) |
| --- | --- |
| 5 to 50 nM | Cc1nc(F)ccc1Oc1cc(C(F)(F)F)c(Cl)cc1C(=O)Nc1ccnc(S(C)(=O)=O)c1 [Example 17A] |
| 5 to 50 nM | CCC(N)(CC)CCS(=N)(=O)c1cccc(NC(=O)c2c(Oc3ccc(F)nc3C)ncc(C(F)(F)F)c2C)c1 (centres unmarked) [Example 41C, N-(3-(3-amino-3-ethylpentylsulfonimidoyl)phenyl)-2-((6-fluoro-2-methylpyridin-3-yl)oxy)-4-methyl-5-(trifluoromethyl)nicotinamide] |
| 5 to 50 nM | COc1cc(C#N)ccc1Oc1cc(C(F)(F)F)c(Cl)cc1C(=O)Nc1ccc(F)c([S@](C)(=N)=O)c1 [Example 8A, (R)-5-chloro-2-(4-cyano-2-methoxyphenoxy)-N-(4-fluoro-3-(S-methylsulfonimidoyl)phenyl)-4-(trifluoromethyl)benzamide] |
| 100 to 200 nM | Cc1nc(F)ccc1Oc1ncc(C(F)(F)F)c(C)c1C(=O)Nc1cccc(S(=O)(=O)CCCO)c1 [Example 70C] |
| > 200 nM | Cc1nc(F)ccc1Oc1nc(C(F)(F)F)c(Cl)cc1C(=O)Nc1ccnc([S@](C)(=N)=O)c1 [Example 81C] |
| > 200 nM | Cc1nc(F)ccc1Oc1ncc(C(F)(F)F)c(C)c1C(=O)Nc1cc(S(=N)(=O)CCCO)ccn1 (centres unmarked) [Example 49C] |
| > 200 nM | Cc1nc(F)ccc1Oc1ncc(C(F)(F)F)c(C)c1C(=O)Nc1cncc([S@@](C)(=N)=O)c1 [Example 62C] |
| 5 to 50 nM | Cc1nc(F)ccc1Oc1ccc(C(F)(F)F)c(Cl)c1C(=O)Nc1ccnc([S@](C)(=N)=O)c1 [Example 32A] |
| > 200 nM | COc1cc(C#N)ccc1Oc1cc(C(F)(F)F)c(Cl)cc1C(=O)Nc1ccc(F)c([S@@](C)(=N)=O)c1 [Example 26A] |
| > 200 nM | Cc1nc(F)ccc1Oc1cc(C(F)(F)F)ccc1C(=O)Nc1ccnc([S@](C)(=N)=O)c1 [Example 28A] |
| 5 to 50 nM | Cc1nc(F)ccc1Oc1ncc(C(F)(F)F)c(C)c1C(=O)Nc1cccc([S@](=N)(=O)CCO)c1 [Example 67C] |
| > 200 nM | Cc1nc(F)ccc1Oc1ncc(C(F)(F)F)c(C)c1C(=O)N[C@H]1C[C@@H](C(N)=O)C1 [Example 85C] |
| 100 to 200 nM | Cc1cc(F)ncc1Oc1cc(C(F)(F)F)c(Cl)cc1C(=O)Nc1ccc(F)c([S@](C)(=N)=O)c1 [Example 24A] |
| 5 to 50 nM | COc1cc(C#N)ccc1Oc1ncc(C(F)(F)F)c(C)c1C(=O)Nc1cccc([S@](=N)(=O)CCCO)c1 [Example 57C] |
| 5 to 50 nM | CNCCS(=N)(=O)c1cccc(NC(=O)c2c(Oc3ccc(F)nc3C)ncc(C(F)(F)F)c2C)c1 (centres unmarked) [Example 78C] |
| 5 to 50 nM | CNC(C)(C)CCS(=N)(=O)c1cccc(NC(=O)c2c(Oc3ccc(F)nc3C)ncc(C(F)(F)F)c2C)c1 (centres unmarked) [Example 50C] |
| 50 to 100 nM | Cc1nc(F)ccc1Oc1ncc(C(F)(F)F)c(C)c1C(=O)Nc1cccc([S@@](=N)(=O)CCO)c1 [Example 66C] |

Same assay, conditions: P1, resting state block; Nav1.8/β1 HEK293 cells, holding potential −120 mV; first set of compounds; read-out: P1 (IC50, resting state block)

| Structure (SMILES) | IC50 |
| --- | --- |
| COc1cc(Br)ccc1Oc1cc(C(F)(F)F)c(Cl)cc1C(=O)Nc1ccnc([S@](C)(=N)=O)c1 [Example 11A, (R)-2-(4-bromo-2-methoxyphenoxy)-5-chloro-N-(2-(S-methylsulfonimidoyl)pyridin-4-yl)-4-(trifluoromethyl)benzamide] | < 5 nM |
| Cc1cc(F)ncc1Oc1cc(C(F)(F)F)c(Cl)cc1C(=O)Nc1cccc([S@@](C)(=N)=O)c1 [Example 21A] | 100 to 200 nM |
| Cc1cc(F)ncc1Oc1cc(C(F)(F)F)c(Cl)cc1C(=O)Nc1ccnc([S@](C)(=N)=O)c1 [Example 20A] | 100 to 200 nM |

Second part, the compound after the results:

| IC50 | Structure (SMILES) |
| --- | --- |
| 5 to 50 nM | COc1cc(C#N)ccc1Oc1cc(C(F)(F)F)c(Cl)cc1C(=O)Nc1ccnc([S@@](C)(=N)=O)c1 [Example 15A] |
| > 200 nM | Cc1cc(F)ncc1Oc1cc(C(F)(F)F)c(Cl)cc1C(=O)Nc1ccc(F)c([S@@](C)(=N)=O)c1 [Example 23A] |
| > 200 nM | Cc1cc(F)ncc1Oc1cc(C(F)(F)F)c(Cl)cc1C(=O)Nc1ccnc([S@@](C)(=N)=O)c1 [Example 19A] |
| < 5 nM | COc1cc(Br)ccc1Oc1cc(C(F)(F)F)c(Cl)cc1C(=O)Nc1ccnc([S@@](C)(=N)=O)c1 [Example 16A] |

Same assay, conditions: P1, resting state block; Nav1.8/β1 HEK293 cells, holding potential −120 mV; fourth set of compounds; read-out: P1 (IC50, resting state block)

| IC50 | Structure (SMILES) |
| --- | --- |
| > 200 nM | Cc1nc(F)ccc1Oc1ncc(C(F)(F)F)c(C)c1C(=O)Nc1cccc(S2(=O)=NC(=O)CC2)c1 (single isomer, unassigned) [Example 30D, 2-((6-fluoro-2-methylpyridin-3-yl)oxy)-4-methyl-N-(3-(1-oxido-3-oxo-4,5-dihydro-3H-1l6-isothiazol-1-yl)phenyl)-5-(trifluoromethyl)nicotinamide] |

Same assay, conditions: P1, resting state block; Nav1.8/β1 HEK293 cells, holding potential −120 mV; third set of compounds; read-out: P1 (IC50, resting state block)

| IC50 | Structure (SMILES) |
| --- | --- |
| 5 to 50 nM | CNCC[S@@](=N)(=O)c1cccc(NC(=O)c2c(Oc3ccc(F)nc3C)ncc(C(F)(F)F)c2C)c1 [Example 64C] |
| > 200 nM | Cc1nc(F)ccc1Oc1cc(C(F)(F)F)c(Cl)cc1C(=O)Nc1ccnc([S@@](C)(=N)=O)c1 [Example 77C] |
